Measured values published in ChEMBL document CHEMBL1201862, “PubChem BioAssay data set” (2004).
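Where inhibition never reached the appropriate level, the endpoint shown equals the highest concentration tested. Otherwise, values were interpolated linearly from a five-concentration, 48-hour dose response in 96-well plates. At the GI50, growth is halved.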 Activity calls are given as the source filed them. Rule as the data show it: active = GI50 up to about 1.1 µM and inactive = higher.

Columns and labels:
Assay in all cases: NCI anticancer screen, dose series, 48 h
786-0 = system: 786-0
A498 = system: A498
A549 = system: A549
ACHN = system: ACHN
BT-549 = system: BT-549
CCRF-CEM = system: CCRF-CEM
COLO 205 = system: COLO 205
DU-145 = system: DU-145
EKVX = system: EKVX
HCC 2998 = system: HCC 2998
HCT-116 = system: HCT-116
HCT-15 = system: HCT-15
HL-60 = system: HL-60
HOP-62 = system: HOP-62
HOP-92 = system: HOP-92
HT-29 = system: HT-29
Hs-578T = system: Hs-578T
IGROV-1 = system: IGROV-1
K562 = system: K562
KM12 = system: KM12
LOX IMVI = system: LOX IMVI
M14 = system: M14
MDA-MB-231 = system: MDA-MB-231
MDA-MB-435 = system: MDA-MB-435
MDA-N = system: MDA-N
MOLT-4 = system: MOLT-4
Malme-3M = system: Malme-3M
NCI-H226 = system: NCI-H226
NCI-H23 = system: NCI-H23
NCI-H460 = system: NCI-H460
NCI-H522 = system: NCI-H522
NCI/ADR-RES = system: NCI/ADR-RES
OVCAR-3 = system: OVCAR-3
OVCAR-4 = system: OVCAR-4
OVCAR-5 = system: OVCAR-5
OVCAR-8 = system: OVCAR-8
PC-3 = system: PC-3
RPMI-8226 = system: RPMI-8226
RXF 393 = system: RXF 393
SF-268 = system: SF-268
SF-295 = system: SF-295
SF-539 = system: SF-539
SK-MEL-28 = system: SK-MEL-28
SK-MEL-2 = system: SK-MEL-2
SK-MEL-5 = system: SK-MEL-5
SK-OV-3 = system: SK-OV-3
SN12C = system: SN12C
SNB-19 = system: SNB-19
SNB-75 = system: SNB-75
SR = system: SR
SW-620 = system: SW-620
T47D = system: T47D
TK-10 = system: TK-10
U-251 = system: U-251
UACC-257 = system: UACC-257
UACC-62 = system: UACC-62
UO-31 = system: UO-31
CAKI-1 = system: CAKI-1
MCF7 = system: MCF7

`CC(=O)CC(C)(C)NC(=O)[C@@]1(O)CC[C@H]2[C@@H]3CCC4=CC(=O)CC[C@@H]4[C@H]3CC[C@@]21C` was tested. Which GI50 (786-0) did it give?
Its GI50 is > 100 µM (inactive).

What about the GI50 (A498) of the same compound?
The GI50 was > 100 µM (inactive).

And the GI50 (A549)?
The GI50 was > 100 µM (inactive).

What about the GI50 (ACHN) of the same compound?
The GI50 was > 100 µM (inactive).

What about the GI50 (BT-549) of the same compound?
The GI50 was > 100 µM (inactive).

What about the GI50 (CCRF-CEM) of the same compound?
Its GI50 is > 100 µM (inactive).

And the GI50 (COLO 205)?
Its GI50 is > 100 µM (inactive).

And the GI50 (DU-145)?
Its GI50 is > 100 µM (inactive).

What about the GI50 (EKVX) of the same compound?
The GI50 was > 100 µM (inactive).

And the GI50 (HCC 2998)?
The GI50 was > 100 µM (inactive).

And the GI50 (HCT-116)?
Its GI50 is > 100 µM (inactive).

What about the GI50 (HCT-15) of the same compound?
The GI50 was greater than 100 µM.

And the GI50 (HL-60)?
The GI50 was 70.3 µM (inactive).

And the GI50 (HOP-62)?
The GI50 was > 100 µM (inactive).

And the GI50 (HOP-92)?
The GI50 was > 100 µM (inactive).

And the GI50 (HT-29)?
Its GI50 is > 100 µM (inactive).

What about the GI50 (Hs-578T) of the same compound?
The GI50 was > 100 µM (inactive).

What about the GI50 (IGROV-1) of the same compound?
Its GI50 is > 100 µM (inactive).

And the GI50 (K562)?
The GI50 was > 100 µM (inactive).

And the GI50 (KM12)?
The GI50 was > 100 µM (inactive).

And the GI50 (LOX IMVI)?
Its GI50 is > 100 µM (inactive).

And the GI50 (M14)?
The GI50 was > 100 µM (inactive).

And the GI50 (MDA-MB-231)?
The GI50 was > 100 µM (inactive).

And the GI50 (MDA-MB-435)?
Its GI50 is > 100 µM (inactive).

What about the GI50 (MDA-N) of the same compound?
The GI50 was > 100 µM (inactive).

What about the GI50 (MOLT-4) of the same compound?
Its GI50 is 56.4 µM (inactive).

And the GI50 (Malme-3M)?
The GI50 was > 100 µM (inactive).

And the GI50 (NCI-H226)?
Its GI50 is > 100 µM (inactive).

And the GI50 (NCI-H23)?
Its GI50 is > 100 µM (inactive).

And the GI50 (NCI-H460)?
The GI50 was > 100 µM (inactive).

And the GI50 (NCI-H522)?
The GI50 was > 100 µM (inactive).

What about the GI50 (NCI/ADR-RES) of the same compound?
The GI50 was > 100 µM (inactive).

And the GI50 (OVCAR-3)?
The GI50 was > 100 µM (inactive).

And the GI50 (OVCAR-4)?
The GI50 was > 100 µM (inactive).

What about the GI50 (OVCAR-5) of the same compound?
Its GI50 is > 100 µM (inactive).

What about the GI50 (OVCAR-8) of the same compound?
Its GI50 is > 100 µM (inactive).

What about the GI50 (PC-3) of the same compound?
Its GI50 is > 100 µM (inactive).

And the GI50 (RPMI-8226)?
Its GI50 is > 100 µM (inactive).

And the GI50 (RXF 393)?
Its GI50 is > 100 µM (inactive).

What about the GI50 (SF-268) of the same compound?
Its GI50 is > 100 µM (inactive).

What about the GI50 (SF-295) of the same compound?
Its GI50 is > 100 µM (inactive).

And the GI50 (SF-539)?
Its GI50 is > 100 µM (inactive).

What about the GI50 (SK-MEL-28) of the same compound?
Its GI50 is > 100 µM (inactive).

And the GI50 (SK-MEL-2)?
The GI50 was > 100 µM (inactive).

And the GI50 (SK-MEL-5)?
Its GI50 is 72.8 µM (inactive).

And the GI50 (SK-OV-3)?
The GI50 was > 100 µM (inactive).

And the GI50 (SN12C)?
Its GI50 is > 100 µM (inactive).

What about the GI50 (SNB-19) of the same compound?
Its GI50 is > 100 µM (inactive).

And the GI50 (SNB-75)?
Its GI50 is > 100 µM (inactive).

And the GI50 (SR)?
The GI50 was > 100 µM (inactive).

What about the GI50 (SW-620) of the same compound?
The GI50 was > 100 µM (inactive).

And the GI50 (T47D)?
Its GI50 is 63.1 µM (inactive).

What about the GI50 (TK-10) of the same compound?
The GI50 was > 100 µM (inactive).

And the GI50 (U-251)?
Its GI50 is > 100 µM (inactive).

What about the GI50 (UACC-257) of the same compound?
The GI50 was > 100 µM (inactive).

And the GI50 (UACC-62)?
The GI50 was > 100 µM (inactive).

What about the GI50 (UO-31) of the same compound?
Its GI50 is > 100 µM (inactive).

Which GI50 (786-0) does the source give for `CCN(CC)CCNc1ccc2nnn3c4ccc(OCCN(CC)CC)cc4c(=O)c1c23` here?
Its GI50 is 21.6 µM (inactive).

What about the GI50 (A498) of the same compound?
Its GI50 is > 100 µM (inactive).

What about the GI50 (A549) of the same compound?
The GI50 was 44.9 µM (inactive).

And the GI50 (ACHN)?
Its GI50 is 65.2 µM (inactive).

What about the GI50 (BT-549) of the same compound?
Its GI50 is > 100 µM (inactive).

What about the GI50 (CAKI-1) of the same compound?
Its GI50 is 66.1 µM (inactive).

And the GI50 (CCRF-CEM)?
The GI50 was 16.4 µM (inactive).

What about the GI50 (COLO 205) of the same compound?
The GI50 was 30.6 µM (inactive).

And the GI50 (DU-145)?
Its GI50 is 42.3 µM (inactive).

What about the GI50 (EKVX) of the same compound?
The GI50 was 71 µM (inactive).

What about the GI50 (HCC 2998) of the same compound?
Its GI50 is > 100 µM (inactive).

And the GI50 (HCT-116)?
Its GI50 is 30 µM (inactive).

And the GI50 (HCT-15)?
The GI50 was 64.6 µM.

What about the GI50 (HOP-62) of the same compound?
The GI50 was 19.4 µM (inactive).

What about the GI50 (HOP-92) of the same compound?
Its GI50 is 51.9 µM (inactive).

And the GI50 (HT-29)?
Its GI50 is 18.5 µM (inactive).

And the GI50 (Hs-578T)?
Its GI50 is > 100 µM (inactive).

What about the GI50 (K562) of the same compound?
Its GI50 is 38.6 µM (inactive).

And the GI50 (KM12)?
Its GI50 is 32.3 µM (inactive).

What about the GI50 (M14) of the same compound?
The GI50 was > 100 µM (inactive).

And the GI50 (MCF7)?
Its GI50 is 33.6 µM (inactive).

And the GI50 (MDA-MB-231)?
Its GI50 is 23.1 µM (inactive).

What about the GI50 (MDA-MB-435) of the same compound?
The GI50 was 49.5 µM (inactive).

And the GI50 (MDA-N)?
The GI50 was 66.5 µM (inactive).

What about the GI50 (MOLT-4) of the same compound?
Its GI50 is 6.73 µM (inactive).

What about the GI50 (NCI-H23) of the same compound?
The GI50 was 88.5 µM (inactive).

And the GI50 (NCI-H460)?
The GI50 was 33.7 µM (inactive).

What about the GI50 (NCI-H522) of the same compound?
Its GI50 is 18.8 µM (inactive).

And the GI50 (NCI/ADR-RES)?
The GI50 was 57.7 µM (inactive).

What about the GI50 (OVCAR-4) of the same compound?
Its GI50 is 16.3 µM (inactive).

What about the GI50 (OVCAR-5) of the same compound?
Its GI50 is > 100 µM (inactive).

What about the GI50 (OVCAR-8) of the same compound?
Its GI50 is 27.9 µM (inactive).

What about the GI50 (RPMI-8226) of the same compound?
Its GI50 is 26.8 µM (inactive).

And the GI50 (RXF 393)?
The GI50 was 62.5 µM (inactive).

What about the GI50 (SF-268) of the same compound?
Its GI50 is 54.1 µM (inactive).

What about the GI50 (SF-295) of the same compound?
The GI50 was 65.3 µM (inactive).

And the GI50 (SF-539)?
The GI50 was 96.8 µM (inactive).

And the GI50 (SK-MEL-28)?
The GI50 was > 100 µM (inactive).

And the GI50 (SK-MEL-2)?
The GI50 was > 100 µM (inactive).

What about the GI50 (SK-OV-3) of the same compound?
The GI50 was > 100 µM (inactive).

What about the GI50 (SN12C) of the same compound?
The GI50 was 32.4 µM (inactive).

What about the GI50 (SNB-19) of the same compound?
The GI50 was 48.5 µM (inactive).

What about the GI50 (SR) of the same compound?
Its GI50 is 19.4 µM (inactive).

And the GI50 (SW-620)?
The GI50 was 38.2 µM (inactive).

What about the GI50 (T47D) of the same compound?
The GI50 was > 100 µM (inactive).

And the GI50 (TK-10)?
Its GI50 is 28.5 µM (inactive).

What about the GI50 (U-251) of the same compound?
Its GI50 is 60.3 µM (inactive).

What about the GI50 (UACC-257) of the same compound?
Its GI50 is > 100 µM (inactive).

And the GI50 (UACC-62)?
Its GI50 is > 100 µM (inactive).

And the GI50 (UO-31)?
The GI50 was 89.9 µM (inactive).
